Measured values: patent publication US20150133401A1, “COMBINATION THERAPY INVOLVING A VASCULAR DISRUPTING AGENT AND AN AGENT WHICH TARGETS HYPOXIA” (BIONOMICS LIMITED, priority 2012, published 2015)

Tests used:
[1] = tested on: tumour endothelial cells (activated) and normal endothelial cells (quiescent); test: Selectivity between activated (tumour) and quiescent (normal) endothelial cells; assay type: cell-based
Text: An important aspect of the compounds of formulae I, Ia, Ib, II and III is the combination of the specific C-6 and C-7 substituents together with the C-2 Q-group (especially C-2 methyl) which appears to confer greater potency and selectivity when compared to other structurally related TPI compounds. In these compounds selectivity is not simply reliant on the predisposition of tumour vasculature towards collapse when challenged with the VDA but on a capacity of the VDA to distinguish between tumour endothelial cells and normal endothelial cells. Normal endothelial cells, found in healthy tissues, are in a “quiescent” state and tumour endothelial cells are in an “activated” state.

RENCA renal tumours = test: Vascular shutdown and hypoxia response markers in RENCA renal tumours; assay type: in vivo
tumor mass = test: Histological changes caused by BNC105 anti-tumor action (tumor necrosis); assay type: in vivo; details: histology; peripheral regions remain viable
Text: Based on investigations on the histological changes caused by BNC105 anti-tumor action, it was established that >95% of the tumor mass becomes necrotic, while peripheral regions remain viable. […] Among these is the angiogenesis growth factor VEGF. The present inventors sought to investigate the potential therapeutic benefit of combining BNC105 with an inhibitor of the VEGF/VEGFR2 signalling pathway.

[2] = tested on: RENCA (VHL wildtype) orthotopic tumour; test: Tumour growth inhibition by weight of RENCA orthotopic tumour bearing kidneys; assay type: in vivo, Balb/c mice; details: kidneys weighed on Day 10 of treatment; Pazopanib 30 mg/kg p.o. daily, BNC105 16 mg/kg i.v. Days 2 and 9; FIG. 3
Protocol: FIG. 3 Right kidney weight (mg)±SEM of mice bearing RENCA kidney tumours treated with BNC105P, Pazopanib or BNC105P+Pazopanib.
RENCA (VHL wildtype) orthotopic tumour bearing kidneys from Balb/c mice were weighed on Day 10 day of treatment (Pazopanib 30 mg/kg, p.o. Daily, BNC105 16 mg/kg i.v. Days 2 and 9).

RENCA orthotopic tumour = test: TUNEL assay of necrosis in RENCA orthotopic tumour sections; assay type: in vivo, Balb/c mice; details: 4 hours after dosing BNC105 on Day 9; Bortezomib 0.5 mg/kg iv Days 1, 5, 8; BNC105 32 mg/kg iv Days 2 and 9
Protocol: RENCA orthotopic tumour bearing kidneys from Balb/c mice were photographed 4 hours after dosing BNC105 on Day 9 of treatment (Bortezomib 0.5 mg/kg iv Days 1, 5, 8, BNC105 32 mg/kg iv Days 2 and 9). Formalin fixed and paraffin embedded sections were stained using a TUNEL assay (Roche) to visualize cell necrosis.

[3] = tested on: MDA-MB-231 breast carcinoma; test: Tumour hypoxia / disruption of tumour vasculature in MDA-MB-231 tumours; assay type: in vivo
Calu-6 lung carcinoma = test: Tumour hypoxia / disruption of tumour vasculature in Calu-6 tumours; assay type: in vivo
Colo205 colon carcinoma = test: Tumour hypoxia / disruption of tumour vasculature in Colo205 tumours; assay type: in vivo
[4] = tested on: DU-145 prostate carcinoma; test: Tumour hypoxia / disruption of tumour vasculature in DU-145 tumours; assay type: in vivo
[5] = tested on: RENCA (VHL wildtype) orthotopic tumour; test: Immunohistochemistry of unfolded protein response markers in RENCA orthotopic tumour sections; assay type: in vivo, Balb/c mice; details: 24 hours after a single dose i.v. 32 mg/kg
Text: (Fast Red detection on hematoxylin)

`COc1cc(C(=O)c2c(C)oc3c(O)c(OC)ccc23)cc(OC)c1OC` [BNC105, 2-Methyl-7-hydroxy-3-(3,4,5-trimethoxybenzoyl)-6-methoxybenzofuran] was tested, and the “potency against quiescent versus activated endothelial cells (selectivity)” value [1] was “show selectivity towards tumor endothelial cells (activated) over normal endothelial cells (quiescent)”, the vascular shutdown (RENCA renal tumours) was “induced vascular shutdown” and the “CXCL12 and MMP-9 levels” value (RENCA renal tumours; induced hypoxia) was “increase in CXCL12 and MMP-9”. For the same molecule, the “GLUT1, HIF-1a, PERK, eIF2a and VEGF levels” value (RENCA renal tumours; on vascular shutdown) was “increase GLUT1, HIF-1a, PERK, eIF2a and VEGF”, the “tumor mass that becomes necrotic” value (tumor mass) was greater than 95% and the tumour growth inhibition [2] was 21%. The “tumor necrosis (TUNEL staining)” value (RENCA orthotopic tumour) was “Very little tumor necrosis”.

`CC(C)C[C@H](NC(=O)[C@H](Cc1ccccc1)NC(=O)c1cnccn1)B(O)O` [Bortezomib, reference compound] was tested, and the “tumor necrosis (TUNEL staining)” value (RENCA orthotopic tumour) was “Very little tumor necrosis”.

`COc1cc(C(=O)c2c(C)oc3c(OP(=O)([O-])[O-])c(OC)ccc23)cc(OC)c1OC.[Na+].[Na+]` [BNC105P, Disodium 6-methoxy-2-methyl-3-(3,4,5-trimethoxybenzoyl)benzofuran-7-yl phosphate] was tested, and the “tumour hypoxia by disruption of tumour vasculature” value (shortened to “tumour hypoxia by disruption”) ([3]; MDA-MB-231 breast carcinoma) was “increase tumour hypoxia”, the apoptotic cells ([3]; MDA-MB-231 tumours) was “increase in apoptotic cells” and the blood vessel integrity ([3]; MDA-MB-231 tumours) was “damage of blood vessel integrity”. For the same molecule, the “release of angiogenic growth factor VEGF” value ([3]; MDA-MB-231 tumours) was “release of the angiogenic growth factor VEGF”, the tumour endothelial cells ([3]; MDA-MB-231 tumours) was “destruction of tumour endothelial cells” and the “tumour hypoxia by disruption” value (Calu-6 lung carcinoma) was “increase tumour hypoxia”. For the same molecule, the “tumour hypoxia by disruption” value (Colo205 colon carcinoma) was “increase tumour hypoxia”, the “tumour hypoxia by disruption” value [4] was “increase tumour hypoxia” and the “unfolded protein response markers PERK and phosphorylation of eIF2α” value [5] was “upregulation of unfolded protein response markers”.

In the case of `COc1ccc(/C=C\c2cc(OC)c(OC)c(OC)c2)cc1O` [Combretastatin A4 (CA4), Combretastatin A4, reference compound], the “potency against quiescent versus activated endothelial cells (selectivity)” value [1] is reported as “equally potent against quiescent and activated endothelial cells”.

`Cc1ccc(Nc2nccc(N(C)c3ccc4c(C)n(C)nc4c3)n2)cc1S(N)(=O)=O` [Pazopanib, reference compound] gave a tumour growth inhibition [2] of 19%.
